Measurements taken from PMC12169613 (Journal of Medicinal Chemistry, 2025).
Where two headings read alike, the source gives them in different places.

Legend:
Nluc-GPR1 = Nluc-GPR1 (Homo sapiens, UniProt P46091); assay: cell-based
Method: After overnight incubation at standard conditions, 75,000 cells/well were seeded into a black, solid 96-well plate using phenol red-free culture medium. […] (positive control) was added to the cells. […] The readout was performed directly in a microplate reader (Tecan Spark) with a filter for fluorescence (λem = 550–700 nm) and bioluminescence (λem = 430–470 nm). Data studies were performed as mentioned for arr-3 BRET.

human Y1 receptor (hY1R) = human Y1 receptor (hY1R) (Homo sapiens, UniProt P25929)
CMKLR1 [1] = settings: cited from earlier work
CMKLR1 [2] = biological target: CMKLR1 (Homo sapiens, UniProt Q99788)
Source text: Data are presented as mean±SEM.
(2 pictures or pasted objects on this page, not shown here)

Nluc-GPR1, sequence (P46091 whole entry): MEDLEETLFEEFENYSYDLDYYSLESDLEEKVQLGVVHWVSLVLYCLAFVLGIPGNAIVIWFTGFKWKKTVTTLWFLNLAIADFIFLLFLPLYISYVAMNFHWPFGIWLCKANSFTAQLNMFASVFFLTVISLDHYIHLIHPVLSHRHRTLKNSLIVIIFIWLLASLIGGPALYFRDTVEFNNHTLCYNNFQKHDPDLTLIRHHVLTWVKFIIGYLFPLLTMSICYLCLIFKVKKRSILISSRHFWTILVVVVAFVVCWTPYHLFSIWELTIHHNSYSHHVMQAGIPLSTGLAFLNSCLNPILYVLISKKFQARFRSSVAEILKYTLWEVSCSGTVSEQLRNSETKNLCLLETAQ
CMKLR1 (Homo sapiens, UniProt Q99788), sequence (Q99788 3-373): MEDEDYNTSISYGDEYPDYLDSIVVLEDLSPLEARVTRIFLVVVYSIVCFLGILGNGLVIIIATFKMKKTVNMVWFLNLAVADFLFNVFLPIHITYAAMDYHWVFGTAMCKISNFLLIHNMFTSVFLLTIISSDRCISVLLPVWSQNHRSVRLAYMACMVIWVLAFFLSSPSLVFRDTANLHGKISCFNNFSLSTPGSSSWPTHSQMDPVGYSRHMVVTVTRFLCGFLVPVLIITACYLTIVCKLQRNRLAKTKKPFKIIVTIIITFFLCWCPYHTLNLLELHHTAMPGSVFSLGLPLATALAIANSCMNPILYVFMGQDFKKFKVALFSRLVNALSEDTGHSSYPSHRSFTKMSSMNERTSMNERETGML
human Y1 receptor (hY1R), sequence (P25929 whole entry): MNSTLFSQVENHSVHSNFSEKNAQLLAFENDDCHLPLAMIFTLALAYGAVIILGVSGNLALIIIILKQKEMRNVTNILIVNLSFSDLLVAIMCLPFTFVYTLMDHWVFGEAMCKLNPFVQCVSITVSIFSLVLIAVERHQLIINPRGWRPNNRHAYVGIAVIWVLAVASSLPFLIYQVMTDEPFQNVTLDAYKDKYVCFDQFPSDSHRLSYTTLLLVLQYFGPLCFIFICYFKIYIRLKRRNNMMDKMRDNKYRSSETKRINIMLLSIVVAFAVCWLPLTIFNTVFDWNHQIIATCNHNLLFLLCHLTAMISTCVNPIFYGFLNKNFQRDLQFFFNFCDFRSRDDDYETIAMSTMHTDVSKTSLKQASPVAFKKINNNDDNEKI

Compound: COc1ccc(C)cc1NC(=O)CSc1nc(=O)c(S(=O)(=O)c2ccc(C)c(Cl)c2)c[nH]1 [Compound 1, 2-{[5-(3-Chloro-4-methylbenzenesulfonyl)-4-oxo-1,4-dihydropyrimidin-2-yl]sulfanyl}-N-(2-methoxy-5-methyl-phenyl)acetamide]
- Ki (Nluc-GPR1): > 1000 nM
- Ki (Nluc-GPR1; read-out: Nluc-GPR1 Ki): 1320 nM
- effect at hY1R (in words) (human Y1 receptor (hY1R)): no effect

Compound: C[N+](C)(C)CCC(=O)c1cccc2ccccc12.[I-] [α-NETA, 2-(α-naphthoyl)-ethyl-trimethylammonium iodide]
- IC50 (CMKLR1 [1]): 380 nM
- influence on CMKLR1 G protein signaling (in words) (CMKLR1 [2]): No influence
